Results on seven compounds are retold here after patent publication US4038402A, “Method of effecting antihistaminic, antiserotonin and antiallergic actions” (priority 1974, dated 1977).

Data set [1] can be described thus: pharmacological activity in experiments on isolated organs and on intact animals (overall). The method, then:
(§1) The pharmacological activity of said compounds has been tested in various experiments in isolated organs and on intact narcotized and non-narcotizedanimals. The tests were aimed at establishing and quantitatively determining antihistaminic, antiserotonin, cholinolytic, and also broncholytic activity of the preparations. Moreover, the action of the preparations on increased permeability of the vessels, their antiexudative, antiallergic action were tested on guinea pigs, actively sensitized with ovalbumin with the administration of the antigen in the form of aerosol in effective doses. The effect of the preparations on the central nervous system, namely on the spontaneous motor activity, and also the interaction of the preparations with hypnotic and stimulating preparations, was tested.

Data set [2] has as its system serotonin. The conditions noted are these: 30 mg/kg in the stomach; serotonin aerosol.
In a further data set the test system is serotonin and histamine. In words: time course of action on bronchoconstriction by serotonin and histamine (Koncett-Rossler method). In kind it is in vivo, guinea pigs. The conditions noted are these: after intravenous injection. From the text:
The broncheal muscle tone was examined in intact narcotized guinea pigs by the Koncett-Rossler method.

For the next data set, the system named is ovalbumin. In words: anaphylactic reaction of guinea pigs sensitized with ovalbumin, aerosol of ovalbumin. In kind it is in vivo. The conditions noted are these: 30 mg/kg in the stomach. The method, then:
as §1

A further data set has as its system histamine. The data set is described as follows: antihistaminic and antiallergic activity compared with known preparations. The conditions noted are these: for certain experimental antihistaminic and antiallergic activity relative to known preparations: compared with dimedrol and diprasin-pipolfen.
Data set [3] concerns serotonin. The conditions noted are these: known antagonist; cited from earlier work.
A short description of data set [4]: toxicity (LD50) on various laboratory animals. In kind it is in vivo. The method, then: The toxicity (LD50) of the preparations was determined with various methods of administration (intravenous, subcutaneous, in the stomach) on various laboratory animals.

Take `OC(c1cccs1)(c1cccs1)C1CN2CCC1CC2` (centres unmarked) [(quinuclidyl-3 )-di(thienyl- 2')-carbinol]: in data set [1], the pharmacological activity entry is reported as “high activity”.

For `CN(C)CCOC(c1ccccc1)c1ccccc1` [Dimedrol], the “persistence of the antiserotonin action” value in the data set with serotonin [2] was in the range of 4 to 6 h. Further, in the data set with serotonin and histamine, the onset of effect result is reported as “immediately”.

With `COc1ccccc1C(O)(c1ccccc1OC)C1CN2CCC1CC2` (centres unmarked) [(quinuclidyl-3)-di(2'-methoxyphenyl)carbinol], the “protection from anaphylactic reaction” value with ovalbumin is “actively protects”. Further, in the data set on histamine, the “certain experimental antihistaminic and antiallergic activity relative to known preparations” value is reported as “superior”.

In the case of `CCN(CC)C(=O)[C@@H]1C=C2c3cccc4[nH]cc(c34)C[C@H]2N(C)C1` [LSD-25, diethylamide lysergic acid], in the data set with serotonin and histamine, the onset of effect entry was “immediately”. The “activity as antagonist to serotonin” value in the data set with serotonin [3] is on record as “one of the most active known antogonists to serotonin”.

Consider `OC(c1ccccc1)(c1ccccc1)C1CN2CCC1CC2` (centres unmarked) [(quinuclidyl-3)-diphenylcarbinol], for which, in data set [1], the pharmacological activity entry is “high activity”. For the same compound, in data set [4] (given in the stomach), the “times less toxic than dimedrol” value stood at 1.5 times. In addition, in data set [4] (given intravenously), the “times less toxic than dimedrol” value was determined as 1.5 times. In the data set on histamine, the antihistaminic activity entry is “high antihistaminic activity”; the “certain experimental antihistaminic and antiallergic activity relative to known preparations” value is on record as “superior”.

With `OC(c1ccccc1)(C1CCCCC1)C1CN2CCC1CC2` (centres unmarked) [(phenyl)-(cyclohexyl)-(quinuclidyl- 3) -carbinol], the pharmacological activity result in data set [1] is “high activity”.

As for `OC(c1ccccc1)(c1cccs1)C1CN2CCC1CC2` (centres unmarked) [(phenyl)-(thienyl- 2')-(quinuclidyl- 3)carbinol], the pharmacological activity entry in data set [1] is on record as “high activity”.
